Measurements published in ChEMBL document CHEMBL4706528, “The design, synthesis and anti-tumor mechanism study of new androgen receptor degrader” (Eur J Med Chem, 2020).

Legend:
LNCaP = assay: Antiproliferative activity against androgen-positive human LNCaP cells assessed as cell growth inhibition measured after 72 hrs by SRB assay; format: functional, cell-based
[1] = molecular target: T1, Androgen receptor (Homo sapiens) (UniProt P10275); assay: Binding affinity to androgen receptor LBD (unknown origin) at 10 uM incubated for 4 hrs under dark by fluorescence polarization based binding assay relative to R1881
T1 sequence (whole entry): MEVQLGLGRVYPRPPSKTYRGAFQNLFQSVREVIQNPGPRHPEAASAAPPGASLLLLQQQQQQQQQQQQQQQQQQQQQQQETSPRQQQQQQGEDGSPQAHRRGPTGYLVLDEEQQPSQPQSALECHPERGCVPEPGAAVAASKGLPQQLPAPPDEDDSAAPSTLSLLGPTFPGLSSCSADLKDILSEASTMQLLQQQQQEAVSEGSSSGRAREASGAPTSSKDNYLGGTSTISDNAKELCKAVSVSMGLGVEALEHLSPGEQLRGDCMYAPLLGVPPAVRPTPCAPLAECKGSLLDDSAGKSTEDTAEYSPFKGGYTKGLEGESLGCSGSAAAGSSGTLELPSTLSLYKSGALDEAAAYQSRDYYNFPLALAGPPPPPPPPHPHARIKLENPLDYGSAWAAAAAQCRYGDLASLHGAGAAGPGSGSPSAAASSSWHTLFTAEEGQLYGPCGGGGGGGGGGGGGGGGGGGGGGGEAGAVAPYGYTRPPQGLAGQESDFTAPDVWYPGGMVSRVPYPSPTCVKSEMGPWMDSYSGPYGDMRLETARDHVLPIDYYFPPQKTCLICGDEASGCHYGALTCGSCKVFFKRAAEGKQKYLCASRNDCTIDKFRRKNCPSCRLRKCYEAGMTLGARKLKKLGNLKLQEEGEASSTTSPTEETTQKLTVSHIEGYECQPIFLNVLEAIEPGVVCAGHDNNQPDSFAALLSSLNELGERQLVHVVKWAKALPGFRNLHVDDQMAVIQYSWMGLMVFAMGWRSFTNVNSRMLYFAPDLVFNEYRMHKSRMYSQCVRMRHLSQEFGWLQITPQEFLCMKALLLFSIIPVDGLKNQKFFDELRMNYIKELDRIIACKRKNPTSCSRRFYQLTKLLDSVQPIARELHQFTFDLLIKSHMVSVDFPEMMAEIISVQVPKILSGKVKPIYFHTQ

LNCaP C4-2B = assay: Antiproliferative activity against androgen-sensitive positive human LNCaP C4-2B cells assessed as cell growth inhibition measured after 72 hrs by SRB assay; format: functional, cell-based
PC-3 = assay: Antiproliferative activity against androgen-negative human PC-3 cells assessed as cell growth inhibition measured after 72 hrs by SRB assay; format: functional, cell-based; settings: PC-3, 72 h
[2] = Cytotoxicity against androgen-negative human WPMY-1 cells assessed as cell growth inhibition measured after 72 hrs by SRB assay; format: cell-based; settings: WPMY-1, 72 h

Row | IC50 (LNCaP) | Activity [1] | IC50 (LNCaP C4-2B) | IC50 (PC-3) | Compound | IC50 [2]
1 | 9.13 µM | 35.1% | > 80 µM | > 80 µM | CC1(C)C(=O)N(c2ccc(C#N)c(C(F)(F)F)c2)C(=S)N1Cc1cn(CCOCCOCCOC(=O)CC23CC4CC(CC(C4)C2)C3)nn1 | > 80 µM
2 | 4.06 µM | 24.3% | 11.2 µM | > 80 µM | CC1(C)C(=O)N(c2ccc(C#N)c(C(F)(F)F)c2)C(=O)N1CCCn1cc(COCCCOC(=O)CC23CC4CC(CC(C4)C2)C3)nn1 | > 80 µM
3 | 7.28 µM | 41.9% | 12.3 µM | > 80 µM | CC1(C)C(=O)N(c2ccc(C#N)c(C(F)(F)F)c2)C(=O)N1CCCn1cc(COCCOCCOC(=O)CC23CC4CC(CC(C4)C2)C3)nn1 | > 80 µM
4 | > 80 µM | 35.8% | > 80 µM | > 80 µM | CC1(C)C(=O)N(c2ccc(C#N)c(C(F)(F)F)c2)C(=S)N1Cc1ccc(OCCOCCOCCOCCOC(=O)CC23CC4CC(CC(C4)C2)C3)cc1 | > 80 µM
5 | > 80 µM | 19.1% | > 80 µM | > 80 µM | CC1(C)C(=O)N(c2ccc(C#N)c(C(F)(F)F)c2)C(=O)N1Cc1ccc(-n2cc(COCCCOC(=O)CC34CC5CC(CC(C5)C3)C4)nn2)cc1 | > 80 µM
6 | > 80 µM | 20.1% | > 80 µM | > 80 µM | CC1(C)C(=O)N(c2ccc(C#N)c(C(F)(F)F)c2)C(=O)N1Cc1ccc(-n2cc(COCCOCCOCCOC(=O)CC34CC5CC(CC(C5)C3)C4)nn2)cc1 | > 80 µM
7 | 33.9 µM | 32.3% | > 80 µM | > 80 µM | CC1(C)C(=O)N(c2ccc(C#N)c(C(F)(F)F)c2)C(=S)N1CCCCCCn1cc(COCCOCCOC(=O)CC23CC4CC(CC(C4)C2)C3)nn1 | > 80 µM
8 | > 80 µM | 39.9% | > 80 µM | > 80 µM | CC1(C)C(=O)N(c2ccc(C#N)c(C(F)(F)F)c2)C(=S)N1Cc1ccc(-n2cc(COCCOCCOCCOCCOC(=O)CC34CC5CC(CC(C5)C3)C4)nn2)cc1 | > 80 µM
9 | > 80 µM | 22.2% | 17.4 µM | > 80 µM | CC1(C)C(=O)N(c2ccc(C#N)c(C(F)(F)F)c2)C(=S)N1Cc1cn(CCOCCOC(=O)CC23CC4CC(CC(C4)C2)C3)nn1 | > 80 µM
10 | > 80 µM | 52.8% | 11.9 µM | > 80 µM | CC1(C)C(=O)N(c2ccc(C#N)c(C(F)(F)F)c2)C(=O)N1Cc1cn(CCOCCOC(=O)CC23CC4CC(CC(C4)C2)C3)nn1 | > 80 µM
11 | > 80 µM | 36.7% | > 80 µM | > 80 µM | CC1(C)C(=O)N(c2ccc(C#N)c(C(F)(F)F)c2)C(=O)N1Cc1ccc(-n2cc(COCCOCCOC(=O)CC34CC5CC(CC(C5)C3)C4)nn2)cc1 | > 80 µM
12 | 6.64 µM | 31.6% | 10.6 µM | > 80 µM | CC1(C)C(=O)N(c2ccc(C#N)c(C(F)(F)F)c2)C(=S)N1CCCn1cc(COCCCOC(=O)CC23CC4CC(CC(C4)C2)C3)nn1 | > 80 µM
13 | > 80 µM | 51.8% | > 80 µM | > 80 µM | CC1(C)C(=O)N(c2ccc(C#N)c(C(F)(F)F)c2)C(=O)N1Cc1ccc(-n2cc(COCCOCCOCCOCCOC(=O)CC34CC5CC(CC(C5)C3)C4)nn2)cc1 | > 80 µM
14 | > 80 µM | 35.8% | > 80 µM | > 80 µM | CC1(C)C(=O)N(c2ccc(C#N)c(C(F)(F)F)c2)C(=S)N1Cc1ccc(-n2cc(COCCOCCOC(=O)CC34CC5CC(CC(C5)C3)C4)nn2)cc1 | > 80 µM
15 | 7.7 µM | 46.7% | 8.34 µM | > 80 µM | CC1(C)C(=O)N(c2ccc(C#N)c(C(F)(F)F)c2)C(=O)N1Cc1cn(CCOCCOCCOC(=O)CC23CC4CC(CC(C4)C2)C3)nn1 | > 80 µM
16 | 6.66 µM | 33.9% | 9.95 µM | > 80 µM | CC1(C)C(=O)N(c2ccc(C#N)c(C(F)(F)F)c2)C(=O)N1CCCn1cc(COCCOCCOCCOC(=O)CC23CC4CC(CC(C4)C2)C3)nn1 | > 80 µM
17 | > 80 µM | 52.8% | > 80 µM | > 80 µM | CC1(C)C(=O)N(c2ccc(C#N)c(C(F)(F)F)c2)C(=S)N1Cc1cn(CCCOC(=O)CC23CC4CC(CC(C4)C2)C3)nn1 | > 80 µM
18 | 9.96 µM | 47% | 11.7 µM | > 80 µM | CC1(C)C(=O)N(c2ccc(C#N)c(C(F)(F)F)c2)C(=O)N1CCCn1cc(COCCOCCOCCOCCOC(=O)CC23CC4CC(CC(C4)C2)C3)nn1 | > 80 µM
19 | 6.87 µM | 29.8% | 7.76 µM | > 80 µM | CC1(C)C(=O)N(c2ccc(C#N)c(C(F)(F)F)c2)C(=O)N1Cc1cn(CCOCCOCCOCCOC(=O)CC23CC4CC(CC(C4)C2)C3)nn1 | > 80 µM
20 | > 80 µM | 39.1% | 12.2 µM | > 80 µM | CC1(C)C(=O)N(c2ccc(C#N)c(C(F)(F)F)c2)C(=S)N1Cc1ccc(-n2cc(COCCOCCOCCOCCOCCOC(=O)CC34CC5CC(CC(C5)C3)C4)nn2)cc1 | > 80 µM
21 | > 80 µM | 26% | > 80 µM | > 80 µM | CC1(C)C(=O)N(c2ccc(C#N)c(C(F)(F)F)c2)C(=S)N1Cc1ccc(-n2cc(COCCCOC(=O)CC34CC5CC(CC(C5)C3)C4)nn2)cc1 | > 80 µM
22 | > 80 µM | 32% | 14.6 µM | > 80 µM | CC1(C)C(=O)N(c2ccc(C#N)c(C(F)(F)F)c2)C(=S)N1Cc1ccc(OCCOCCOCCOC(=O)CC23CC4CC(CC(C4)C2)C3)cc1 | > 80 µM
23 | 6.31 µM | 69.1% | 11.2 µM | > 80 µM | CC1(C)C(=O)N(c2ccc(C#N)c(C(F)(F)F)c2)C(=S)N1Cc1cn(CCOCCOCCOCCOC(=O)CC23CC4CC(CC(C4)C2)C3)nn1 | > 80 µM
24 | 4.25 µM | 69.3% | 7.64 µM | > 80 µM | CC1(C)C(=O)N(c2ccc(C#N)c(C(F)(F)F)c2)C(=S)N1CCCn1cc(COCCOCCOCCOCCOC(=O)CC23CC4CC(CC(C4)C2)C3)nn1 | > 80 µM
25 | > 80 µM | 37.9% | > 80 µM | > 80 µM | CC1(C)C(=O)N(c2ccc(C#N)c(C(F)(F)F)c2)C(=S)N1Cc1ccc(OCCCOC(=O)CC23CC4CC(CC(C4)C2)C3)cc1 | > 80 µM
26 | > 80 µM | 34.2% | > 80 µM | > 80 µM | CC1(C)C(=O)N(c2ccc(C#N)c(C(F)(F)F)c2)C(=S)N1Cc1ccc(OCCOCCOC(=O)CC23CC4CC(CC(C4)C2)C3)cc1 | > 80 µM
27 | 6.92 µM | 33.7% | 6.61 µM | > 80 µM | CC1(C)C(=O)N(c2ccc(C#N)c(C(F)(F)F)c2)C(=S)N1CCCn1cc(COCCOCCOCCOCCOCCOC(=O)CC23CC4CC(CC(C4)C2)C3)nn1 | > 80 µM
28 | > 80 µM | 26.3% | > 80 µM | > 80 µM | CC1(C)C(=O)N(c2ccc(C#N)c(C(F)(F)F)c2)C(=O)N1Cc1ccc(OCCOCCOC(=O)CC23CC4CC(CC(C4)C2)C3)cc1 | > 80 µM
29 | > 80 µM | 25.3% | > 80 µM | > 80 µM | CC1(C)C(=O)N(c2ccc(C#N)c(C(F)(F)F)c2)C(=S)N1Cc1ccc(-n2cc(COCCOCCOCCOC(=O)CC34CC5CC(CC(C5)C3)C4)nn2)cc1 | > 80 µM
30 | > 80 µM | 43.4% | > 80 µM | > 80 µM | CC1(C)C(=O)N(c2ccc(C#N)c(C(F)(F)F)c2)C(=O)N1Cc1cn(CCCOC(=O)CC23CC4CC(CC(C4)C2)C3)nn1 | > 80 µM
